Measured values reported in patent publication US6603023B2 (priority 1996, dated 2003).
Read-outs that look alike come from different tables or passages of the source.

Columns and labels:
[1] = tested on: human neuroblastoma SK-N-As; assay: SRB cytotoxicity, SK-N-As; type: cell-based; settings: 72 h
How it was run: (§1)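 Cellular protein content measured with sulforhodamine B after trichloroacetic acid fixation, read at 570 nm. Each duplicate run used six to seven concentrations, analysed by the median-effect method. Cells were cultured at 37 °C, 5% CO2 in RPMI 1640-10% FBS, and drug-resistant lines were maintained with their selecting agent.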

[2] = tested on: Human CCRF-CEM/VBL Xenograft; assay: CCRF-CEM/VBL xenograft in scid mice; type: in vivo, CB-17 scid mice
[3] = tested on: DC-3F hamster lung fibroblast cell line; assay: SRB cytotoxicity, DC-3F; type: cell-based
How it was run: as §1

[4] = tested on: SK-N-FI; assay: cells; type: cell-based, human; settings: for IC50: 72 h
How it was run: as §1

[5] = tested on: human ovarian adenocarcinoma SK-OV-3
[6] = tested on: P388/Adr; assay: cells; type: cell-based, murine; settings: for IC50: 72 h
How it was run: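 XTT microculture tetrazolium readout, duplicate wells: 72 h compound incubation, then PMS-XTT (0.025 mM PMS) added, 4 h 37 °C, A450 and A630 measured. Suspension cells in RPMI-1640/10% FBS, 5×10^4 cells/mL; resistant sublines maintained with selecting drug.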

[7] = tested on: MCF-7; assay: SRB cytotoxicity, MCF-7; type: cell-based, human
How it was run: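 Monolayer MCF-7 cultures exposed to six to seven drug concentrations in duplicate, then fixed with trichloroacetic acid and stained 30 min with 0.4% sulforhodamine B. Bound dye extracted with unbuffered Tris base, absorbance read at 570 nm; values derived by median-effect plot analysis.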

[8] = tested on: DC-3F/ADX; assay: cells; type: cell-based, hamster
How it was run: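 Cell protein content measured by sulforhodamine B staining after trichloroacetic acid fixation, read at 570 nm; duplicate runs of six to seven concentrations fitted by median-effect analysis. Lines are actinomycin D-resistant DC-3F hamster lung sublines (ADII, ADX), kept under selecting drug in RPMI 1640-10% FBS.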

[9] = tested on: Human CCRF-CEM Xenograft; assay: CCRF-CEM xenograft in scid mice; type: in vivo, CB-17 scid mice; settings: for mice died of drug toxicity: 7 mice
[10] = tested on: PC-3 Human Prostate Carcinoma; assay: PC-3 xenograft; type: in vivo, nude mice; settings: for Average Body Weight, Day 5: initial weight
[11] = dose 0.7 i.p. QD d7-10,14,15, day 7
[12] = dose 0.7 i.p. QD d7-10,14,15, day 12
[13] = dose 0.7 i.p. QD d7-10,14,15, day 17
[14] = dose 0.7 i.p. QD d7-10,14,15, day 22
[15] = dose 1.0 i.p. QD d7-10,14,15, day 7
[16] = dose 1.0 i.p. QD d7-10,14,15, day 12
[17] = dose 1.0 i.p. QD d7-10,14,15, day 17
[18] = dose 1.0 i.p. QD d7-10,14,15, day 22
[19] = Table 1C, SRB, 72 h, read-out: IC50
[20] = 0.6 mg/kg i.p. Q2Dx5 from day 9
[21] = 0.6 mg/kg i.p. Q2Dx5 from day 9, day 15
[22] = 0.6 mg/kg i.p. Q2Dx5 from day 9, day 17
[23] = 0.6 mg/kg i.p. Q2Dx5 from day 9, day 19
[24] = dose 2.0 i.p. QD d7-10,14,15, day 7
[25] = dose 2.0 i.p. QD d7-10,14,15, day 12
[26] = dose 2.0 i.p. QD d7-10,14,15, day 17
[27] = dose 2.0 i.p. QD d7-10,14,15, day 22
[28] = dose 4.0 i.p. QD d7-10,14,15, day 7
[29] = dose 4.0 i.p. QD d7-10,14,15, day 12
[30] = dose 4.0 i.p. QD d7-10,14,15, day 17
[31] = dose 4.0 i.p. QD d7-10,14,15, day 22
[32] = SK-OV-3 Ovary, dEpoB 30 mg/kg Q2D x 6, Taxol 15 mg/kg Q2D x 6
[33] = 6 hr i.v. infusion: dEpoB 40, Taxol 24 mg/kg
[34] = PC-3 Prostate, dEpoB 40 mg/kg Q2D x 3, Taxol 15 mg/kg Q2D x 3
[35] = dEpoB 30 mg/kg 18 hr i.v. infusion, Taxol 16 mg/kg 6 hr infusion, VBL 2 and VP-16 25 mg/kg i.v. inj

Structure (SMILES): C/C(=C\c1csc(C)n1)[C@@H]1C[C@@H]2O[C@]2(C)CCC[C@H](C)[C@H](O)[C@@H](C)C(=O)C(C)(C)[C@@H](O)CC(=O)O1 [Epothilone B, epothilone B]
- IC50 ([1]; Table 1C, SRB, read-out: IC50): 4 nM
- mice died of drug toxicity ([2]; Epo B dose 1.0 i.p., 7 mice, day 17): ^6.One mouse died of drug toxicity on day 17.
- Average weight change [2, 11]: +0.1
- Average tumor volume (control = 1.00) [2, 12]: 0.32
- Average weight change [2, 12]: −0.7
- Average tumor volume (control = 1.00) [2, 13]: 0.40
- Average weight change [2, 13]: −1.0
- Average tumor volume (control = 1.00) [2, 14]: 0.33
- Average weight change [2, 14]: −0.2
- Average weight change [2, 15]: −0.2
- Average tumor volume (control = 1.00) [2, 16]: 0.41
- Average weight change [2, 16]: −1.3
- Average tumor volume (control = 1.00) [2, 17]: 0.27
- Average weight change [2, 17]: −2.1
- Average tumor volume (control = 1.00) [2, 18]: 0.31
- Average weight change [2, 18]: −0.5
- IC50 [3, 19]: 0.6 nM
- fold resistance vs parent SK-N-As ([4]; SK-N-F1 cells): 25 fold
- folds of resistance (IC50 ratio vs parent cell line) ([4]; Table 1C, SK-N-FI vs SK-N-As): (25x)
- IC50 ([4]; Table 1C, SRB, read-out: IC50): 10 nM
- Toxicity Death [5, 20]: 0/6
- Tumor Disapp. [5, 20]: 0/6
- Average Body Weight Change ([5]; 0.6 mg/kg i.p. Q2Dx5 from day 9, day 13): -0.9 g
- Average Body Weight Change [5, 21]: -0.5 g
- Average Tumor Size (T/C) [5, 21]: 0.75
- Average Body Weight Change [5, 22]: -3.3 g
- Average Tumor Size (T/C) [5, 22]: 0.69
- Average Body Weight Change [5, 23]: -3.4 g
- Average Tumor Size (T/C) [5, 23]: 0.88
- Average Tumor Size (T/C) ([5]; 0.6 mg/kg i.p. Q2Dx5 from day 9, day 21): 0.77
- folds of resistance (IC50 ratio vs parent cell line) ([6]; Table 1C, P388/Adr vs P388/O): (5.5x)
- IC50 ([6]; Table 1C, XTT, read-out: IC50): 1.6 nM
- IC50 [7, 19]: 0.5 nM
- fold resistance vs parent DC-3F ([8]; DC-3F/ADX cells, listed as EpoB): 28 fold
- folds of resistance (IC50 ratio vs parent cell line) ([8]; Table 1C, DC-3F/ADX vs DC-3F): (28x)
- IC50 [8, 19]: 17 nM
- mice died of drug toxicity ([9]; Epo B dose 0.7 i.p., day 19 & 20): ^4.Two mice died of drug toxicity on day 19 & 20.
- mice died of drug toxicity ([9]; Epo B dose 1.0 i.p., day 18, 19 and 21): ^5.Three mice died of drug toxicity on day 18, 19 and 21.
- Average weight change [9, 11]: −0.1
- Average tumor volume (control = 1.00) [9, 12]: 0.53
- Average weight change [9, 12]: −0.7
- Average tumor volume (control = 1.00) [9, 13]: 0.48
- Average weight change [9, 13]: −1.4
- Average tumor volume (control = 1.00) [9, 14]: 0.46
- Average weight change [9, 14]: +0.3
- Average weight change [9, 15]: +0.1
- Average tumor volume (control = 1.00) [9, 16]: 0.46
- Average weight change [9, 16]: −1.5
- Average tumor volume (control = 1.00) [9, 17]: 0.35
- Average weight change [9, 17]: −2.4
- Average tumor volume (control = 1.00) [9, 18]: 0.43
- Average weight change [9, 18]: +0.1

Structure (SMILES): CC(=O)O[C@H]1C(=O)[C@@]2(C)[C@H]([C@H](OC(=O)c3ccccc3)[C@]3(O)C[C@H](OC(=O)[C@H](O)[C@@H](NC(=O)c4ccccc4)c4ccccc4)C(C)=C1C3(C)C)[C@]1(OC(C)=O)CO[C@@H]1C[C@@H]2O [Taxol ®, paclitaxel]
- IC50 ([1]; Homo sapiens, SK-N-AS): 1.6 nM
- Average weight change [2, 24]: 0
- Average tumor volume (control = 1.00) [2, 25]: 0.60
- Average weight change [2, 25]: −0.9
- Average tumor volume (control = 1.00) [2, 26]: 0.58
- Average weight change [2, 26]: −1.5
- Average tumor volume (control = 1.00) [2, 27]: 0.70
- Average weight change [2, 27]: −0.1
- Average weight change [2, 28]: 0
- Average tumor volume (control = 1.00) [2, 29]: 0.79
- Average weight change [2, 29]: −1.4
- Average tumor volume (control = 1.00) [2, 30]: 0.55
- Average weight change [2, 30]: −1.6
- Average tumor volume (control = 1.00) [2, 31]: 0.41
- Average weight change [2, 31]: −0.9
- IC50 ([3]; Mesocricetus auratus, DC3F, 72 h, Table 1C, SRB): 95 nM
- IC50 ([3]; Mesocricetus auratus, DC3F, Table 3): 94.7 nM
- IC50 ([3]; Mesocricetus auratus, DC3F, relative potency ordering): 90 nM
- IC50 ([4]; Homo sapiens, SK-N-FI): 130 nM
- Tumor Disapp. ([5]; 5 mg/kg i.p. Q2Dx5 from day 9): 0/6
- Average Body Weight Change ([5]; 5 mg/kg i.p. Q2Dx5 from day 9, day 13): -1.1 g
- Average Body Weight Change ([5]; 5 mg/kg i.p. Q2Dx5 from day 9, day 15): -2.0 g
- Average Body Weight Change ([5]; 5 mg/kg i.p. Q2Dx5 from day 9, day 17): -1.0 g
- Average Body Weight Change ([5]; 5 mg/kg i.p. Q2Dx5 from day 9, day 19): -0.2 g
- Lowest Average Tumor Size (T/C) [5, 32]: 0.02 T/C
- Tumor Disappearance [5, 32]: 1/4
- Tumor Disapp. ([5]; Taxol 15 mg/kg i.v. Q2Dx5 from day 9): 0/6
- Average Body Weight Change ([5]; Taxol 15 mg/kg i.v. Q2Dx5 from day 9, day 13): -0.6 g
- Average Body Weight Change ([5]; Taxol 15 mg/kg i.v. Q2Dx5 from day 9, day 15): -0.8 g
- Average Body Weight Change ([5]; Taxol 15 mg/kg i.v. Q2Dx5 from day 9, day 17): -0.8 g
- Average Body Weight Change ([5]; Taxol 15 mg/kg i.v. Q2Dx5 from day 9, day 19): -0.9 g
- Toxicity Death ([5]; nude, mouse, in vivo): 0/6
- Average Body Weight (change), Day 9 [10, 33]: -2.2 g
- Average Body Weight (change), Day 11 [10, 33]: -2.8 g
- Average Body Weight (change), Day 13 [10, 33]: -0.8 g
- Average Tumor Size (TC), Day 9 [10, 33]: 0.18 TC
- Average Tumor Size (TC), Day 11 [10, 33]: 0.05 TC
- Average Tumor Size (TC), Day 13 [10, 33]: 0.06 TC
- Tumor Disappearance [10, 33]: 2/4
- Lowest Average Tumor Size (T/C) [10, 34]: 0.02 T/C
- Tumor Disappearance [10, 34]: 0
- Average Body Weight (change), Day 9 [10, 35]: -1.1 g
- Average Body Weight (change), Day 11 [10, 35]: -0.9 g
- Average Body Weight (change), Day 13 [10, 35]: +0.4 g
- Average Tumor Size (TC), Day 9 [10, 35]: 0.34 TC
- Average Tumor Size (TC), Day 11 [10, 35]: 0.09 TC
- Average Tumor Size (TC), Day 13 [10, 35]: 0.02 TC
- Tumor Disappearance [10, 35]: 0/4
- Average Body Weight, Day 5 [10, 33]: 28.8 g
- Average Body Weight, Day 5 [10, 35]: 26.6 g
- IC50 ([6]; Mus musculus, P388/ADR): 326 nM
- IC50 ([7]; Homo sapiens, MCF7, 72 h): 3.3 nM
- IC50 ([8]; DC3F/ADX, 72 h, Table 1C, SRB): 32000 nM
- IC50 ([8]; DC3F/ADX, Table 3): 32000 nM
- IC50 ([8]; DC3F/ADX, relative potency ordering): 32000 nM
- Average weight change [9, 24]: −0.1
- Average tumor volume (control = 1.00) [9, 25]: 0.39
- Average weight change [9, 25]: −1.1
- Average tumor volume (control = 1.00) [9, 26]: 0.29
- Average weight change [9, 26]: −1.5
- Average tumor volume (control = 1.00) [9, 27]: 0.28
- Average weight change [9, 27]: −0.3
- Average weight change [9, 28]: −0.2
- Average tumor volume (control = 1.00) [9, 29]: 0.37
- Average weight change [9, 29]: −1.7
- Average tumor volume (control = 1.00) [9, 30]: 0.23
- Average weight change [9, 30]: −1.9
- Average tumor volume (control = 1.00) [9, 31]: 0.19
- Average weight change [9, 31]: −0.3
